Assay results published in publication PMC8351955, “Targeting Mycobacterium tuberculosis response to environmental cues for the development of effective antitubercular drugs” (PLoS Biology, 2021).
Where “and” joins values, the source holds several entries; their conditions need not be identical. Identical values can stand only once.

Assays:
[1] = Human plasma protein binding; assay type: in vitro ADME
[2] = system: Mtb growth in J774 macrophage-like cells; assay: J774 infection in 96-well plates, mKO fluorescence 6 days post-infection; assay type: cell-based, Mycobacterium tuberculosis; conditions: for % Growth: Fig. 2D, DMSO = 100
Method in brief: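 J774 cells infected with mKO-expressing log-phase Mtb (40 μl at OD600 = 0.2 per well) and treated with compound at 10 μM final (0.1% DMSO). mKO fluorescence (ex 543/em 565 nm) read at infection and 6 days later at 37 °C, 5% CO2; growth expressed relative to DMSO controls as 100%.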

[3] = system: Mtb growth in J774 murine macrophage-like cells; assay: microbe, parasite or virus in culture; assay type: cell-based, Mycobacterium tuberculosis; conditions: for NPI (Mtb growth in J774 cells), average: Fig 1F
CYP1A2 = target: T1, CYP1A2 (Homo sapiens, UniProt P05177); assay: Human cytochrome P450 inhibition, 1A2; assay type: in vitro ADME; conditions: read-out: % inhibition of CYP 1A2
T1 sequence (P05177 1-516): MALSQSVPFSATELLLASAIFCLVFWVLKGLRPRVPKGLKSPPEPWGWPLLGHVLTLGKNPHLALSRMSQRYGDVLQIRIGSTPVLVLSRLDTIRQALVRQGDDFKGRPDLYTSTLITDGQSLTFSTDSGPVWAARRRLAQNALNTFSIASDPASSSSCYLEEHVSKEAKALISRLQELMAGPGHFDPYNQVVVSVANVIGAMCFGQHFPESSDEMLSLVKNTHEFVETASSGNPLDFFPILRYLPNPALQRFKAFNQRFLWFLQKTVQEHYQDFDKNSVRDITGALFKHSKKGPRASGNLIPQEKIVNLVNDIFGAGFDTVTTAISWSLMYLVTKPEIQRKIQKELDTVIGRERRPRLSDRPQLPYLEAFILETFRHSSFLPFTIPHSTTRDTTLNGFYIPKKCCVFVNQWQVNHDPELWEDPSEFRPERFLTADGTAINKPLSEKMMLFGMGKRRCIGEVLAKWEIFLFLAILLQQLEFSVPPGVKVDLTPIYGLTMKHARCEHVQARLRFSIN
Protocol: (§1) Assays examining mouse and human liver microsomal stability, kinetic aqueous solubility, mouse and human plasma protein binding and stability, and human cytochrome P450 inhibition characteristics of the compounds were run by BioDuro (San Diego, CA), using standard protocols as previously described [37]. hERG inhibition assays were also performed by BioDuro.

[4] = system: macrophage phagosomal proteolytic activity in BMDMs; assay: Phagosomal maturation assay, DQ-BSA/AF594 beads (proteolysis readout); assay type: cell-based, mouse; conditions: for DQ-BSA/AF594, Average: average of 4 replicates
Protocol: Carboxyfluorescein (pH readout), DQ-BSA/Alexa Fluor 594 (AF594) (proteolysis readout), and BAC/AF594 (Cl^− readout) beads were generated essentially as previously described, except that 10,10′-Bis[3-carboxylpropyl]-9,9′-biacridinium dinitrate di-NHS ester (BAC-SE) was purchased from emp Biotech LLC. BMDMs were isolated from C57BL/6J mice (The Jackson Laboratory) and maintained as described above. A quantity of 2 × 10^5 macrophages/well were seeded into 96-well clear bottom black plates and utilized in assays 1 to 2 days post-seeding. […] Assay buffer consisted of PBS (pH 7.2), supplemented with 5% FBS, 5 mM dextrose, 1 mM CaCl2, 2.7 mM KCl, and 0.5 mM MgCl2 in the case of assays with the carboxyfluorescein or DQ-BSA/AF594 beads. For assays with the BAC/AF594 beads, assay buffer consisted of PBS (pH 7.2), supplemented with 5% FBS, 5 mM dextrose, 1 mM calcium acetate, 1.35 mM K2SO4, and 0.5 mM MgSO4 [9]. Sensor beads at approximately 2 to 5 beads/macrophage in appropriate assay buffer were finally added, with data acquisition on a Biotek Synergy H1 microplate reader with bottom read signal detection started within 2 to 3 minutes of bead addition. Excitation/emission wavelengths were 450 nm/520 nm and 490 nm/520 nm for carboxyfluorescein, 490 nm/520 nm for DQ-BSA, 365 nm/505 nm for BAC, and 590 nm/617 nm for AF594. Each experiment was run with a total of 3 to 5 replicate wells/condition, with temperature maintained at 37°C throughout the assay. Wells were read every 2 minutes for 2 hours for the carboxyfluorescein bead assays, every 2 minoutes for 4 hours for the DQ-BSA/AF594 bead assays, and every 1 minute for 2 hours for the BAC/AF594 bead assays. Analyses of the results were performed as previously described.

CYP2D6 = CYP2D6 (Homo sapiens, UniProt P10635); assay: Human cytochrome P450 inhibition, 2D6; assay type: in vitro ADME; conditions: read-out: % inhibition of CYP 2D6
Sequence of CYP2D6 (P10635 whole entry): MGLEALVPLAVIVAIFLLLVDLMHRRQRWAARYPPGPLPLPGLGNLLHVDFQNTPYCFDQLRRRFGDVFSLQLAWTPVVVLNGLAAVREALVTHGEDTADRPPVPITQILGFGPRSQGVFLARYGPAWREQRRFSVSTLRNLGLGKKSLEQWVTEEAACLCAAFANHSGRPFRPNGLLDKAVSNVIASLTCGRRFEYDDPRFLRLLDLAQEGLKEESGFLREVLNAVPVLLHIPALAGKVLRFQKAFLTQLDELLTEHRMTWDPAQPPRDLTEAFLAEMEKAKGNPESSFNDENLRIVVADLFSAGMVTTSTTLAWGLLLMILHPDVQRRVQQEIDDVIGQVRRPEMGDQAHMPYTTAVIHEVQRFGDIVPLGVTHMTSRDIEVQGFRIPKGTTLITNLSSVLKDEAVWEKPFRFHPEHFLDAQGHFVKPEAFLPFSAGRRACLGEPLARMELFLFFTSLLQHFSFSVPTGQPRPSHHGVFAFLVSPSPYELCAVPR
Protocol: as §1

Q: With `CCSc1ncc(CN2CCN(c3nc4ccccc4o3)CC2)cn1` [C6, 2-(4-((2-(ethylthio)pyrimidin-5-yl)methyl)piperazin-1-yl)benzo[d]oxazole] as the compound, how does the fraction unbound [1] read?
A: Its fraction unbound is 0.008.

Q: What about the “% growth of Mtb in J774 cells, average” value ([2]; 10 μM compound, 6 days post-infection, DMSO = 100%, Fig 1H) of the same compound?
A: Its value is 40.8112%.

Q: What about the “Inhibition of Mtb growth in J774 cells” value ([2]; 10 μM, 6 days post-infection) of the same compound?
A: The value was “Mtb growth inhibition”.

Q: And the “% Growth” value ([2]; average of 4 replicates)?
A: The value was 56.2334%.

Q: What about the “% Growth” value ([2]; individual replicates) of the same compound?
A: Its value is 53.4835% and 56.5013% and 56.5506% and 58.3983%.

Q: And the “NPI (Mtb growth in J774 cells), average” value ([3]; 0.078125 µM, 5 µM rifampicin = 100% inhibition)?
A: Its value is -7.09%.

Q: What about the “NPI (Mtb growth in J774 cells), average” value ([3]; 0.15625 µM) of the same compound?
A: Its value is -2.13%.

Q: What about the “NPI (Mtb growth in J774 cells), average” value ([3]; 0.3125 µM) of the same compound?
A: The value was -0.93%.

Q: And the “NPI (Mtb growth in J774 cells), average” value ([3]; 0.625 µM)?
A: Its value is -0.1%.

Q: What about the “NPI (Mtb growth in J774 cells), average” value ([3]; 1.25 µM) of the same compound?
A: The value was 17.45%.

Q: What about the “NPI (Mtb growth in J774 cells), average” value ([3]; 2.5 µM) of the same compound?
A: The value was 26.3%.

Q: And the “NPI (Mtb growth in J774 cells), average” value ([3]; 5 µM)?
A: The value was 38%.

Q: And the “NPI (Mtb growth in J774 cells), average” value ([3]; 10 µM)?
A: Its value is 40.45%.

Q: And the “NPI (Mtb growth in J774 cells), average” value ([3]; 20 µM)?
A: The value was 53.6%.

Q: And the inhibition at 10 µM ([3]; Mycobacterium tuberculosis, J774, 144 h, read-out: J774 tertiary assay % inhibition compared to Rif at 10 µM compound)?
A: The inhibition at 10 µM was 40.5 ± 0.6%.

Q: And the inhibition at 20 µM ([3]; Mycobacterium tuberculosis, J774, 144 h, read-out: J774 tertiary assay % inhibition compared to Rif at 20 µM compound)?
A: Its inhibition at 20 µM is 53.6 ± 2.7%.

Q: And the inhibition at 10 µM (CYP1A2)?
A: The inhibition at 10 µM was less than 1%.

Q: What about the “Effect on macrophage phagosomal proteolytic activity” value ([4]; 10 μM, uninfected BMDMs) of the same compound?
A: The value was “did not affect”.

Q: And the “DQ-BSA/AF594, single replicates (Rep 1-4)” value (“DQ-BSA/AF594 … (Rep 1-4)” below) ([4]; Time 0 minutes)?
A: Its value is 0.14 and 0.1347 and 0.1424 and 0.1346.

Q: And the “DQ-BSA/AF594 … (Rep 1-4)” value ([4]; Time 2 minutes)?
A: The value was 0.135 and 0.1275 and 0.1349 and 0.128.

Q: And the “DQ-BSA/AF594 … (Rep 1-4)” value ([4]; Time 4 minutes)?
A: Its value is 0.1412 and 0.1359 and 0.1424 and 0.1318.

Q: What about the “DQ-BSA/AF594, Average” value ([4]; time 0 minutes) of the same compound?
A: The value was 0.1379.

Q: What about the “DQ-BSA/AF594, Average” value ([4]; time 2 minutes) of the same compound?
A: Its value is 0.1314.

Q: And the “DQ-BSA/AF594, Average” value ([4]; time 4 minutes)?
A: Its value is 0.1378.

Q: What about the “DQ-BSA/AF594 … (Rep 1-4)” value ([4]; time 6 minutes) of the same compound?
A: Its value is 0.1434 and 0.1398 and 0.1395 and 0.1344.

Q: What about the “DQ-BSA/AF594, Average” value ([4]; time 6 minutes) of the same compound?
A: Its value is 0.1393.

Q: What about the “DQ-BSA/AF594 … (Rep 1-4)” value ([4]; time 8 minutes) of the same compound?
A: The value was 0.1391 and 0.1428 and 0.1447 and 0.1317.

Q: And the “DQ-BSA/AF594, Average” value ([4]; time 8 minutes)?
A: Its value is 0.1396.

Q: What about the “DQ-BSA/AF594 … (Rep 1-4)” value ([4]; time 10 minutes) of the same compound?
A: Its value is 0.146 and 0.145 and 0.1422 and 0.1332.

Q: What about the “DQ-BSA/AF594, Average” value ([4]; time 10 minutes) of the same compound?
A: The value was 0.1416.

Q: What about the “DQ-BSA/AF594 … (Rep 1-4)” value ([4]; time 12 minutes) of the same compound?
A: The value was 0.1443 and 0.1415 and 0.1428 and 0.1313.

Q: What about the “DQ-BSA/AF594, Average” value ([4]; time 12 minutes) of the same compound?
A: The value was 0.14.

Q: And the “DQ-BSA/AF594 … (Rep 1-4)” value ([4]; time 14 minutes)?
A: The value was 0.1461 and 0.1457 and 0.1422 and 0.1412.

Q: And the “DQ-BSA/AF594, Average” value ([4]; time 14 minutes)?
A: The value was 0.1438.

Q: And the “DQ-BSA/AF594 … (Rep 1-4)” value ([4]; time 16 minutes)?
A: Its value is 0.1457 and 0.1504 and 0.1476 and 0.1404.

Q: And the “DQ-BSA/AF594, Average” value ([4]; time 16 minutes)?
A: The value was 0.146.

Q: What about the “DQ-BSA/AF594 … (Rep 1-4)” value ([4]; time 18 minutes) of the same compound?
A: Its value is 0.152 and 0.1539 and 0.1536 and 0.1434.

Q: And the “DQ-BSA/AF594, Average” value ([4]; time 18 minutes)?
A: Its value is 0.1507.

Q: And the “DQ-BSA/AF594 … (Rep 1-4)” value ([4]; time 20 minutes)?
A: Its value is 0.1544 and 0.1557 and 0.1584 and 0.1468.

Q: What about the “DQ-BSA/AF594, Average” value ([4]; time 20 minutes) of the same compound?
A: The value was 0.1538.

Q: What about the “DQ-BSA/AF594 … (Rep 1-4)” value ([4]; time 22 minutes) of the same compound?
A: The value was 0.1647 and 0.1693 and 0.1637 and 0.1551.

Q: What about the “DQ-BSA/AF594, Average” value ([4]; time 22 minutes) of the same compound?
A: Its value is 0.1632.

Q: And the “DQ-BSA/AF594 … (Rep 1-4)” value ([4]; time 24 minutes)?
A: The value was 0.178 and 0.18 and 0.1857 and 0.1719.

Q: What about the “DQ-BSA/AF594, Average” value ([4]; time 24 minutes) of the same compound?
A: Its value is 0.1789.

Q: And the “DQ-BSA/AF594 … (Rep 1-4)” value ([4]; time 26 minutes)?
A: Its value is 0.2064 and 0.2113 and 0.205 and 0.1944.

Q: What about the “DQ-BSA/AF594, Average” value ([4]; time 26 minutes) of the same compound?
A: Its value is 0.2043.

Q: And the “DQ-BSA/AF594 … (Rep 1-4)” value ([4]; time 28 minutes)?
A: Its value is 0.2506 and 0.2446 and 0.2477 and 0.2339.

Q: And the “DQ-BSA/AF594, Average” value ([4]; time 28 minutes)?
A: The value was 0.2442.

Q: What about the “DQ-BSA/AF594 … (Rep 1-4)” value ([4]; time 30 minutes) of the same compound?
A: The value was 0.3139 and 0.29 and 0.311 and 0.2857.

Q: And the “DQ-BSA/AF594, Average” value ([4]; time 30 minutes)?
A: Its value is 0.3002.

Q: What about the inhibition at 10 µM (CYP2D6) of the same compound?
A: Its inhibition at 10 µM is 10.5%.
